# Experimental data as given in US20240132480A1, “INHIBITORS OF MYCOBACTERIUM TUBERCULOSIS LIPOAMIDE DEHYDROGENASE” (Cornell University, priority 2021, published 2024).
# Read-outs that look alike come from different tables or passages of the source.
# Columns and labels:
# [1] = Microsomal clearance (hLM); conditions: human liver microsomes
# Mtb Lpd = Mtb Lpd (Mycobacterium tuberculosis (strain ATCC 25618 / H37Rv), UniProt P9WHH9); format: biochemical
# [2] = microsomes
# [3] = 30 min preincubation, read-out: LPD IC50 (μM) w/ 30 min preincubation
SMILES,Human Liver Microsome Stability [1] [µL/min/mg],IC50 (Mtb Lpd; read-out: LPD IC50) [µM],IC50 (Mtb Lpd; [3]) [µM],Human Liver Microsome Stability [2] [µL/min/mg]
"COc1ccc(NC(=O)CN(C)S(=O)(=O)c2cc(C)cc3cn[nH]c23)cc1Cl [Example 1, N-(3-chloro-4-methoxyphenyl)-2-((N,5-dimethyl-1H-indazole)-7-sulfonamido)acetamide]",>768,,,
"COc1ccc(NC(=O)[C@@H]2CCCN2S(=O)(=O)c2cc(C)cc3cn[nH]c23)cc1Cl [Example 4, (S)—N-(3-chloro-4-methoxyphenyl)-1-((5-methyl-1H-indazol-7-yl)sulfonyl)pyrrolidine-2-carboxamide]",324,0.39,,
Cc1cc(S(=O)(=O)N2CCC[C@H]2C(=O)Nc2ccc(N3CCOCC3)c(Cl)c2)c2[nH]ncc2c1 [Example 5],133,0.042,,
Cc1cc(S(=O)(=O)N2CC[C@H]2C(=O)Nc2ccc3c(c2)N(C2COC2)CCO3)c2[nH]c(C#N)cc2c1 [Example 209],,,0.033,212
"COc1ccc(NC(=O)CN(C)S(=O)(=O)c2cc(C)cc3cc(C#N)[nH]c23)cc1Cl [Example 211, N-(3-chloro-4-methoxyphenyl)-2-((2-cyano-N,5-dimethyl-1H-indole)-7-sulfonamido)acetamide]",,,0.02,358
CCc1ccc(NC(=O)CN(C)S(=O)(=O)c2cc(C)cc3cc(C#N)[nH]c23)cc1Cl [Example 212],,,0.035,210
"COc1cc(NC(=O)CN(C)S(=O)(=O)c2cc(C)cc3cc(C#N)[nH]c23)ccn1 [Example 214, 2-((2-cyano-N,5-dimethyl-1H-indole)-7-sulfonamido)-N-(2-methoxypyridin-4-yl)acetamide]",,,0.021,91
Cc1cc(S(=O)(=O)N(C)CC(=O)Nc2ccc(C3CC3)c(Cl)c2)c2[nH]c(C#N)cc2c1 [Example 215],,,0.036,203
"COc1ccc(NC(=O)CN(C)S(=O)(=O)c2cc(C)cc3cc(C#N)[nH]c23)cn1 [Example 216, 2-((2-cyano-N,5-dimethyl-1H-indole)-7-sulfonamido)-N-(6-methoxypyridin-3-yl)acetamide]",,,0.02,49
CC(=O)Nc1cccc(NC(=O)CN(C)S(=O)(=O)c2cc(C)cc3cc(C#N)[nH]c23)c1 [Example 217],,,0.028,177
Cc1cc(S(=O)(=O)N(C)CC(=O)NCC#Cc2ccccc2)c2[nH]c(C#N)cc2c1 [Example 218],,,0.03,191
Cc1cc(S(=O)(=O)N(C)CC(=O)Nc2cccc(N3CCCCC3=O)c2)c2[nH]c(C#N)cc2c1 [Example 219],,,0.03,150
CCCCNC(=O)CN(C)S(=O)(=O)c1cc(C)cc2cc(C#N)[nH]c12 [Example 223],,,0.028,62
"Cc1cc(S(=O)(=O)N(C)CC(=O)Nc2cc(=O)n3c(n2)CCCC3)c2[nH]c(C#N)cc2c1 [Example 224, 2-((2-cyano-N,5-dimethyl-1H-indole)-7-sulfonamido)-N-(4-oxo-6,7,8,9-tetrahydro-4H-pyrido[1,2-a]pyrimidin-2-yl)acetamide]",,,0.022,61
CN(CC(=O)Nc1ccn(C)c(=O)c1)S(=O)(=O)c1cc(Cl)cc2cc(C#N)[nH]c12 [Example 225],,,0.035,11
CC#CC(C)(C)NC(=O)CN(C)S(=O)(=O)c1cc(C)cc2cc(C#N)[nH]c12 [Example 229],,,0.031,160
